Laboratory results taken from US10363239B2, “Method for inhibiting growth of cancer cells” (Pain Therapeutics, Inc., priority 2013, dated 2019).

Target: FLNA pentapeptide of SEQ ID NO: 1 (Bn-VAKGL) (Homo sapiens, UniProt P21333)
Assay: FITC-NLX-based FLNA screening assay (inhibition of FITC-naloxone binding to Bn-VAKGL on streptavidin plates)
Conditions: FLNA-binding compound 0.01 μM; 10 nM FITC-NLX; read-out: Percent Binding Inhibition

Going from `CN1CCC2(CC1)NC(=O)CN2Cc1ccccc1` [Compound C0104M] to `C=CCN1CCC2(CC1)OCCN2S(=O)(=O)c1ccc(C(C)=O)cc1` [Compound C0096M], the inhibition at 0.01 µM falls from 51.4% to 43%.

Going from `CC(=O)c1ccc(S(=O)(=O)N2CCC3(CC2)OCCN3S(C)(=O)=O)cc1` [Compound C0056] to `CC(=O)c1ccc(S(=O)(=O)N2CCOC23CCN(CC2CC2)CC3)cc1` [Compound C0095M], the inhibition at 0.01 µM rises from 33.7% to 40.1%.

Going from `CNc1ccc(S(=O)(=O)N2CCC3(CC2)OCCN3S(=O)(=O)c2ccc(NC)cc2)cc1` [Compound C0024] to `CC1CCC(C(C)C)C(OCC(O)CN2CCOCC2)C1` (stereo not drawn) [Compound A0004], the inhibition at 0.01 µM rises from 37.9% to 40%.

For `CC1CCC(C(C)C)C(OCC(O)CN2CCCCCC2)C1` (stereo not drawn) [Compound A0013], the inhibition at 0.01 µM was 30.2%.

Same assay, conditions: FLNA-binding compound 0.1 μM; 10 nM FITC-NLX; read-out: Percent Binding Inhibition

Compared with `CN1CCC2(CC1)NC(=O)CN2Cc1ccccc1` [Compound C0104M], `C=CCN1CCC2(CC1)OCCN2S(=O)(=O)c1ccc(C(C)=O)cc1` [Compound C0096M] is lower in inhibition at 0.1 µM: 54.1% for the first, 48.3% for the second.

Compared with `CC(=O)c1ccc(S(=O)(=O)N2CCC3(CC2)OCCN3S(C)(=O)=O)cc1` [Compound C0056], `CC(=O)c1ccc(S(=O)(=O)N2CCOC23CCN(CC2CC2)CC3)cc1` [Compound C0095M] is higher in inhibition at 0.1 µM: 38.9% for the first, 46.6% for the second.

Compared with `CNc1ccc(S(=O)(=O)N2CCC3(CC2)OCCN3S(=O)(=O)c2ccc(NC)cc2)cc1` [Compound C0024], `CC1CCC(C(C)C)C(OCC(O)CN2CCOCC2)C1` (stereo not drawn) [Compound A0004] is lower in inhibition at 0.1 µM: 46.4% for the first, 43.7% for the second.

Work on `CC1CCC(C(C)C)C(OCC(O)CN2CCCCCC2)C1` (stereo not drawn) [Compound A0013] yielded an inhibition at 0.1 µM of 40.2%.

Same assay, conditions: FLNA-binding compound 1 μM; 10 nM FITC-NLX; read-out: Percent Binding Inhibition

First: CN1CCC2(CC1)NC(=O)CN2Cc1ccccc1 [Compound C0104M]
Second: C=CCN1CCC2(CC1)OCCN2S(=O)(=O)c1ccc(C(C)=O)cc1 [Compound C0096M]
The inhibition at 1 µM of the first is higher: 55.2% for the first, 55% for the second.

Compared with `CC(=O)c1ccc(S(=O)(=O)N2CCC3(CC2)OCCN3S(C)(=O)=O)cc1` [Compound C0056], `CC(=O)c1ccc(S(=O)(=O)N2CCOC23CCN(CC2CC2)CC3)cc1` [Compound C0095M] is higher in inhibition at 1 µM: 41.4% for the first, 50.5% for the second.

Going from `CNc1ccc(S(=O)(=O)N2CCC3(CC2)OCCN3S(=O)(=O)c2ccc(NC)cc2)cc1` [Compound C0024] to `CC1CCC(C(C)C)C(OCC(O)CN2CCOCC2)C1` (stereo not drawn) [Compound A0004], the inhibition at 1 µM falls from 50.4% to 47.6%.

`CC1CCC(C(C)C)C(OCC(O)CN2CCCCCC2)C1` (stereo not drawn) [Compound A0013] gave an inhibition at 1 µM of 47.7%.

Tested on: mu opiate receptor (MOR)
Assay: MOR agonist activity using [35S]GTPγS binding assay in striatal membranes
Format: biochemical
Conditions: 0.1 μM compound
Summary of the method: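 Striatal membranes (200 μg) were preincubated 5 min at 30 °C in HEPES pH 7.5 with 100 mM NaCl, 1 mM MgCl2 and 0.5 nM [35S]GTPγS, then 5 min more with 0.1–10 μM compound. Gαo was immunoprecipitated and bound radioactivity counted by scintillation.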

Going from `CC1CCC(C(C)C)C(OCC(O)CN2CCCCCC2)C1` (stereo not drawn) [Compound A0013] to `CC1CCC(C(C)C)C(OCC(O)CN2CCOCC2)C1` (stereo not drawn) [Compound A0004], the “MOR agonist activity ([35S]GTPγS binding), FLNA-Binding Compound as Agonist 0.1 μM” value falls from 102.1% to 97.4%.

Same assay, conditions: 0.1 μM compound relative to DAMGO

Compared with `CC1CCC(C(C)C)C(OCC(O)CN2CCCCCC2)C1` (stereo not drawn) [Compound A0013], `CC1CCC(C(C)C)C(OCC(O)CN2CCOCC2)C1` (stereo not drawn) [Compound A0004] is lower in “% DAMGO (0.1 μM)” value: 57.8% for the first, 55.2% for the second.

Same assay, conditions: 1 μM compound

Going from `CC1CCC(C(C)C)C(OCC(O)CN2CCCCCC2)C1` (stereo not drawn) [Compound A0013] to `CC1CCC(C(C)C)C(OCC(O)CN2CCOCC2)C1` (stereo not drawn) [Compound A0004], the “MOR agonist activity ([35S]GTPγS binding), FLNA-Binding Compound as Agonist 1 μM” value falls from 164.8% to 144.2%.

Same assay, conditions: 1 μM compound + 1 μM β-funaltrexamine

Compared with `CC1CCC(C(C)C)C(OCC(O)CN2CCCCCC2)C1` (stereo not drawn) [Compound A0013], `CC1CCC(C(C)C)C(OCC(O)CN2CCOCC2)C1` (stereo not drawn) [Compound A0004] is lower in “MOR agonist activity ([35S]GTPγS binding), FLNA-Binding Compound as Agonist 1 μM + BFNA” value: 86.1% for the first, 86.0% for the second.

Same assay, conditions: 1 μM compound + BFNA relative to DAMGO + BFNA

First: CC1CCC(C(C)C)C(OCC(O)CN2CCCCCC2)C1 (stereo not drawn) [Compound A0013]
Second: CC1CCC(C(C)C)C(OCC(O)CN2CCOCC2)C1 (stereo not drawn) [Compound A0004]
The “% DAMGO + BFNA” value of the first is higher: 131.1% for the first, 130.9% for the second.

Same assay, conditions: 1 μM compound relative to DAMGO

Going from `CC1CCC(C(C)C)C(OCC(O)CN2CCCCCC2)C1` (stereo not drawn) [Compound A0013] to `CC1CCC(C(C)C)C(OCC(O)CN2CCOCC2)C1` (stereo not drawn) [Compound A0004], the “% DAMGO (1 μM)” value falls from 63.6% to 55.6%.

Same assay, conditions: Series C-1; 0.1 μM compound, relative to DAMGO

In the case of `CNc1ccc(S(=O)(=O)N2CCC3(CC2)OCCN3S(=O)(=O)c2ccc(NC)cc2)cc1` [Compound C0024], the “% DAMGO (0.1 μM)” value is reported as 92.8%.

Same assay, conditions: Series C-1; 0.1 μM compound; [35S]GTPγS binding to Gαo, striatal membranes

`CNc1ccc(S(=O)(=O)N2CCC3(CC2)OCCN3S(=O)(=O)c2ccc(NC)cc2)cc1` [Compound C0024] was tested, and the “Concentration of FLNA-Binding Compound as Agonist 0.1 μM” value was 178.4%.

Same assay, conditions: Series C-1; 1 μM compound + 1 μM β-FNA

In the case of `CNc1ccc(S(=O)(=O)N2CCC3(CC2)OCCN3S(=O)(=O)c2ccc(NC)cc2)cc1` [Compound C0024], the “Concentration of FLNA-Binding Compound as Agonist 1 μM + BFNA” value is reported as 59.3%.

Same assay, conditions: Series C-1; 1 μM compound + β-FNA, relative to DAMGO + BFNA

With `CNc1ccc(S(=O)(=O)N2CCC3(CC2)OCCN3S(=O)(=O)c2ccc(NC)cc2)cc1` [Compound C0024] the “% DAMGO + BFNA” value was 135.1%.

Same assay, conditions: Series C-1; 1 μM compound, relative to DAMGO

For `CNc1ccc(S(=O)(=O)N2CCC3(CC2)OCCN3S(=O)(=O)c2ccc(NC)cc2)cc1` [Compound C0024], the “% DAMGO (1 μM)” value was 84.1%.

Same assay, conditions: Series C-1; 1 μM compound; [35S]GTPγS binding to Gαo, striatal membranes

In the case of `CNc1ccc(S(=O)(=O)N2CCC3(CC2)OCCN3S(=O)(=O)c2ccc(NC)cc2)cc1` [Compound C0024], the “Concentration of FLNA-Binding Compound as Agonist 1 μM” value is reported as 229.6%.

Same assay, conditions: Series C-2; 0.1 μM compound, relative to DAMGO

Compared with `CN1CCC2(CC1)NC(=O)CN2Cc1ccccc1` [Compound C0104M], `C=CCN1CCC2(CC1)OCCN2S(=O)(=O)c1ccc(C(C)=O)cc1` [Compound C0096M] is higher in “% DAMGO (0.1 μM)” value: 99.5% for the first, 105.9% for the second.

Going from `CC(=O)c1ccc(S(=O)(=O)N2CCC3(CC2)OCCN3S(C)(=O)=O)cc1` [Compound C0056] to `CC(=O)c1ccc(S(=O)(=O)N2CCOC23CCN(CC2CC2)CC3)cc1` [Compound C0095M], the “% DAMGO (0.1 μM)” value rises from 68.0% to 107.4%.

Same assay, conditions: Series C-2; 0.1 μM compound; [35S]GTPγS binding to Gαo, striatal membranes

Going from `CN1CCC2(CC1)NC(=O)CN2Cc1ccccc1` [Compound C0104M] to `C=CCN1CCC2(CC1)OCCN2S(=O)(=O)c1ccc(C(C)=O)cc1` [Compound C0096M], the “MOR agonist activity, percent [35S]GTPγS binding at the stated compound concentration” value (from here on “MOR agonist activity, percent”) falls from 188.2% to 186.4%.

First: CC(=O)c1ccc(S(=O)(=O)N2CCC3(CC2)OCCN3S(C)(=O)=O)cc1 [Compound C0056]
Second: CC(=O)c1ccc(S(=O)(=O)N2CCOC23CCN(CC2CC2)CC3)cc1 [Compound C0095M]
The “MOR agonist activity, percent” value of the first is lower: 98.6% for the first, 189.1% for the second.

Same assay, conditions: Series C-2; 1 μM compound + 1 μM β-FNA

Compared with `CN1CCC2(CC1)NC(=O)CN2Cc1ccccc1` [Compound C0104M], `C=CCN1CCC2(CC1)OCCN2S(=O)(=O)c1ccc(C(C)=O)cc1` [Compound C0096M] is lower in “MOR agonist activity, percent” value: 143.8% for the first, 127.1% for the second.

First: CC(=O)c1ccc(S(=O)(=O)N2CCC3(CC2)OCCN3S(C)(=O)=O)cc1 [Compound C0056]
Second: CC(=O)c1ccc(S(=O)(=O)N2CCOC23CCN(CC2CC2)CC3)cc1 [Compound C0095M]
The “MOR agonist activity, percent” value of the first is lower: 86.3% for the first, 107.7% for the second.

Same assay, conditions: Series C-2; 1 μM compound + β-FNA, relative to DAMGO + BFNA

Going from `CN1CCC2(CC1)NC(=O)CN2Cc1ccccc1` [Compound C0104M] to `C=CCN1CCC2(CC1)OCCN2S(=O)(=O)c1ccc(C(C)=O)cc1` [Compound C0096M], the “% DAMGO + BFNA” value rises from 296.5% to 577.7%.

Compared with `CC(=O)c1ccc(S(=O)(=O)N2CCC3(CC2)OCCN3S(C)(=O)=O)cc1` [Compound C0056], `CC(=O)c1ccc(S(=O)(=O)N2CCOC23CCN(CC2CC2)CC3)cc1` [Compound C0095M] is higher in “% DAMGO + BFNA” value: 196.1% for the first, 489.5% for the second.

Same assay, conditions: Series C-2; 1 μM compound, relative to DAMGO

Compared with `CN1CCC2(CC1)NC(=O)CN2Cc1ccccc1` [Compound C0104M], `C=CCN1CCC2(CC1)OCCN2S(=O)(=O)c1ccc(C(C)=O)cc1` [Compound C0096M] is higher in “% DAMGO (1 μM)” value: 96.3% for the first, 130.0% for the second.

Compared with `CC(=O)c1ccc(S(=O)(=O)N2CCC3(CC2)OCCN3S(C)(=O)=O)cc1` [Compound C0056], `CC(=O)c1ccc(S(=O)(=O)N2CCOC23CCN(CC2CC2)CC3)cc1` [Compound C0095M] is higher in “% DAMGO (1 μM)” value: 83.0% for the first, 88.8% for the second.

Same assay, conditions: Series C-2; 1 μM compound; [35S]GTPγS binding to Gαo, striatal membranes

Compared with `CN1CCC2(CC1)NC(=O)CN2Cc1ccccc1` [Compound C0104M], `C=CCN1CCC2(CC1)OCCN2S(=O)(=O)c1ccc(C(C)=O)cc1` [Compound C0096M] is higher in “MOR agonist activity, percent” value: 238.9% for the first, 328.9% for the second.

First: CC(=O)c1ccc(S(=O)(=O)N2CCC3(CC2)OCCN3S(C)(=O)=O)cc1 [Compound C0056]
Second: CC(=O)c1ccc(S(=O)(=O)N2CCOC23CCN(CC2CC2)CC3)cc1 [Compound C0095M]
The “MOR agonist activity, percent” value of the first is lower: 193.4% for the first, 224.6% for the second.
